# Data reported in EP0401963A1, “Phosphonopeptides with collagenase inhibiting activity” (Beecham Group p.l.c., priority 1989, dated 1990).
# Target: human lung fibroblast collagenase
# Assay: Collagenase inhibitor assay (human lung fibroblast collagenase, 14C-acetylated Type I collagen fibril degradation)
# Assay type: biochemical
# Details: Inhibition of human lung fibroblast collagenase (purified from WI-38 culture supernatants); 14C-acetylated rat skin Type I collagen substrate; 37°C overnight; read-out: IC₅₀
# Description: The assay tubes are incubated at 37 °C overnight.
row,IC50 [nM],Structure (SMILES)
1,9490,"CCCCC(N[C@@H](CC(C)C)C(=O)NC1CCCCCCCCCCNC1=O)P(=O)(O)O (stereo partly drawn) [Example E8, 3-[N-[N-(1-Phosphonopentyl)-(S)-leucyl]]-(-)-aminoazacyclotridecan-2-one]"
2,45,"CC[C@@H](N[C@@H](CC(C)C)C(=O)NC1CCCCCCCCCCNC1=O)P(=O)(O)O (single isomer, unassigned) [Example E3C]"
3,166,"CC[C@H](N[C@@H](CC(C)C)C(=O)NC1CCCCCCCCCCNC1=O)P(=O)(O)O (single isomer, unassigned) [Example E4]"
